{"source": "the SangsterLogP compilation"}
{"smiles": "CN(C)S(=O)(=O)c1ccc2ccccc2n1", "logP": 1.98}
{"smiles": "CNS(=O)(=O)c1ccc2ccccc2n1", "logP": 1.57}
{"smiles": "NS(=O)(=O)c1cnc2ccccc2c1", "logP": 0.91}
{"smiles": "NS(=O)(=O)c1ccc2ccccc2n1", "logP": 1.16}
{"smiles": "CNS(=O)(=O)c1ccc2cccnc2c1", "logP": 1.02}
{"smiles": "CNS(=O)(=O)c1cnc2ccccc2c1", "logP": 1.4}
{"smiles": "CN(C)S(=O)(=O)c1cccc2ncccc12", "logP": 1.56}
{"smiles": "NS(=O)(=O)c1cccc2ncccc12", "logP": 0.6}
{"smiles": "NS(=O)(=O)c1ccnc2ccccc12", "logP": 0.93}
{"smiles": "CN(C)S(=O)(=O)c1ccnc2ccccc12", "logP": 1.84}
{"smiles": "CN(C)S(=O)(=O)c1cnc2ccccc2c1", "logP": 1.86}
{"smiles": "CN(C)S(=O)(=O)c1ccc2cccnc2c1", "logP": 1.57}
{"smiles": "CN(C)S(=O)(=O)c1cccc2cccnc12", "logP": 1.69}
{"smiles": "CNS(=O)(=O)c1ccnc2ccccc12", "logP": 1.32}
{"smiles": "CN(C)S(=O)(=O)c1ccc2ncccc2c1", "logP": 1.53}
{"smiles": "NS(=O)(=O)c1ccc2cccnc2c1", "logP": 0.61}
{"smiles": "CNS(=O)(=O)c1cccc2cccnc12", "logP": 1.13}
{"smiles": "CNS(=O)(=O)c1ccc2ncccc2c1", "logP": 1}
{"smiles": "CNS(=O)(=O)c1cccc2ncccc12", "logP": 1.06}
{"smiles": "NS(=O)(=O)c1cccc2cccnc12", "logP": 0.51}
